Assay results as given in patent US10710980B2, “Aminopyridine derivatives and their use as selective ALK-2 inhibitors” (priority 2016, dated 2020).
pIC50: −log10 of the molar value.

Assays:
[1] = target: ALK1 (aa166-493) (Homo sapiens (Human), UniProt P37023); assay: Caliper biochemical peptide phosphorylation assay, ALK1; settings: 15 μm ATP, 60 min at 30° C.; read-out: ALK1 EPK (IC50)
[2] = tested on: BMP response element (BRE) luciferase reporter in HuH7 cells, BMP6 stimulated; assay: BMP signaling reporter gene assay; format: cell-based; settings: Homo sapiens, Huh-7; HuH7 BRE-luciferase, BMP6 100 ng/ml, 5 hours; read-out: MSD BMP RGA IC50
[3] = target: T1, wild-type ALK2 (aa172-499) (Homo sapiens (Human), UniProt Q04771); assay: ADPGlo biochemical autophosphorylation assay, ALK2; settings: 15 μm ATP, 60 min at 32° C.
T1 sequence (Q04771 172-499): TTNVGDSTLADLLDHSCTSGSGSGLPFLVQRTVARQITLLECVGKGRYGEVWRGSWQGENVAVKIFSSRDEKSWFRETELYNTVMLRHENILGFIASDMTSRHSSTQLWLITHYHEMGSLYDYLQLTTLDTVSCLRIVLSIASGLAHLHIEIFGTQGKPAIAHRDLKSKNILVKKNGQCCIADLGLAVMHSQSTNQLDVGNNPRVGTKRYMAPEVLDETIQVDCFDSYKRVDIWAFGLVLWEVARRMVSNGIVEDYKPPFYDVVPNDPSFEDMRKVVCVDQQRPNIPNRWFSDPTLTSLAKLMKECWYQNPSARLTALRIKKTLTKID

[4] = target: ALK6 (aa168-495) (Homo sapiens (Human), UniProt O00238); assay: Caliper biochemical peptide phosphorylation assay, ALK6; settings: 15 μm ATP, 60 min at 30° C.; read-out: ALK6 EPK (IC50)
Chain of ALK6 (aa168-495) (O00238 168-495): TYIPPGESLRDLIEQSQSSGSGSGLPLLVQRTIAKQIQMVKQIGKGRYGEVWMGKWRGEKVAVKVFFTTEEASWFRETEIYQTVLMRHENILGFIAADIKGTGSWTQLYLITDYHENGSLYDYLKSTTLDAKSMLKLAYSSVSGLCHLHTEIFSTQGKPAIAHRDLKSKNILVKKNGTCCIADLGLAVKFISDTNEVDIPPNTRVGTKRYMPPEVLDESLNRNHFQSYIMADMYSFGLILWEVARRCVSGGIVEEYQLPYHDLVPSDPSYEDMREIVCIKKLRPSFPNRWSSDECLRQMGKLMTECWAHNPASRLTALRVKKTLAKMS

[5] = target: T1, wild-type ALK2 (aa172-499); assay: Caliper biochemical peptide phosphorylation assay, ALK2; settings: 15 μm ATP, 60 min at 30° C.; read-out: ALK2 EPK (IC50)

Chain of ALK1 (aa166-493) (P37023 166-493): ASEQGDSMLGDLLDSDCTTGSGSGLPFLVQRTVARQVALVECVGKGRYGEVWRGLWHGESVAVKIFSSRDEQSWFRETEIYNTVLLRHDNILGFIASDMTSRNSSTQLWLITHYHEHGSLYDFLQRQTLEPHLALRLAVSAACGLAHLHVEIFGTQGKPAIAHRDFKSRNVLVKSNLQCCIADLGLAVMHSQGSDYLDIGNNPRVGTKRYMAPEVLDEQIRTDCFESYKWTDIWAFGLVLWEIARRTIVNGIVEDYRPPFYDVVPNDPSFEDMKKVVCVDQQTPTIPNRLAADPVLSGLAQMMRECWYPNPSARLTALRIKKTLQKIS

Compound	pIC50 [1]	pIC50 [2]	pIC50 [3]	pIC50 [4]	pIC50 [5]
CC(C)N1CCC(c2ccc(-c3cnc(N)c(C(=O)N[C@H]4CC[C@H](O)CC4)c3)cc2)C1 (stereo partly shown) [Example 12, 2-amino-N-((1r,4r)-4-hydroxycyclohexyl)-5-(4-(1-isopropylpyrrolidin-3-yl)phenyl)nicotinamide]	6.80				
C[C@]1(O)CC[C@H](NC(=O)c2cc(-c3ccc([C@@]45C[C@@H]4CN(C4CCOCC4)C5)cc3)cnc2N)CC1 [Example 14, 2-amino-N-((1r,4R)-4-hydroxy-4-methylcyclohexyl)-5-(4-((1R,5S)-3-(tetrahydro-2H-pyran-4-yl)-3-azabicyclo[3.1.0]hexan-1-yl)phenyl)nicotinamide]		6.69			
Nc1ncc(-c2ccc(C3CCNC3)cc2)cc1C(=O)N[C@H]1CC[C@H](O)CC1 (stereo partly shown) [Example 18, 2-amino-N-((1r,4r)-4-hydroxycyclohexyl)-5-(4-(pyrrolidin-3-yl)phenyl)nicotinamide]	6.70				
Nc1ncc(-c2ccc([C@@]34C[C@@H]3CN(C3CCOCC3)C4)cc2)cc1C(=O)N[C@H]1CC[C@H](O)CC1 [Example 19, 2-amino-N-((1r,4R)-4-hydroxycyclohexyl)-5-(4-((1R,5S)-3-(tetrahydro-2H-pyran-4-yl)-3-azabicyclo[3.1.0]hexan-1-yl)phenyl)nicotinamide]	6.98	7.68	7.92	5.65	
Nc1ncc(-c2ccc([C@@]34C[C@@H]3CN(C3CCOCC3)C4)cc2)cc1C(=O)N[C@H]1CC[C@@H](O)CC1 [Example 22, 2-amino-N-((1s,4S)-4-hydroxycyclohexyl)-5-(4-((1R,5S)-3-(tetrahydro-2H-pyran-4-yl)-3-azabicyclo[3.1.0]hexan-1-yl)phenyl)nicotinamide]	6.60	7.39	8.05	5.49	7.80
Nc1ncc(-c2ccc([C@@]34C[C@@H]3CN(C3CCC(F)(F)CC3)C4)cc2)cc1C(=O)N[C@H]1CC[C@H](O)CC1 [Example 25, 2-amino-5-(4-((1R,5S)-3-(4,4-difluorocyclohexyl)-3-azabicyclo[3.1.0]hexan-1-yl)phenyl)-N-((1r,4R)-4-hydroxycyclohexyl)nicotinamide]		7.46	8.05	5.52	7.74
Nc1ncc(-c2ccc([C@]34C[C@H]3CN(C3CCC(F)(F)CC3)C4)cc2)cc1C(=O)N[C@H]1CC[C@H](O)CC1 [Example 27, 2-amino-5-(4-((1S,5R)-3-(4,4-difluorocyclohexyl)-3-azabicyclo[3.1.0]hexan-1-yl)phenyl)-N-((1r,4S)-4-hydroxycyclohexyl)nicotinamide]	6.87	7.23	8.00	5.80	7.74
Nc1ncc(-c2ccc([C@@]34C[C@@H]3CN(CCF)C4)cc2)cc1C(=O)NC12CCC(O)(CC1)CC2 [Example 57, 2-amino-5-(4-((1R,5S)-3-(2-fluoroethyl)-3-azabicyclo[3.1.0]hexan-1-yl)phenyl)-N-(4-hydroxybicyclo[2.2.2]octan-1-yl)nicotinamide]		6.84			
C[C@]1(O)CC[C@H](NC(=O)c2cc(-c3ccc([C@]45C[C@H]4CN(C4CCOCC4)C5)cc3)cnc2N)CC1 [Example 62]		6.87			
C[C@@H]1CCCN1Cc1ccc(-c2cnc(N)c(C(=O)N[C@H]3CC[C@](C)(O)CC3)c2)cc1 [Example 72, 2-amino-N-((1r,4R)-4-hydroxy-4-methylcyclohexyl)-5-(4-(((R)-2-methylpyrrolidin-1-yl)methyl)phenyl)nicotinamide]	5.53				
Nc1ncc(-c2ccc([C@]34C[C@H]3CN(CCF)C4)cc2)cc1C(=O)NC12CCC(O)(CC1)CC2 [Example 73, 2-amino-5-(4-((1S,5R)-3-(2-fluoroethyl)-3-azabicyclo[3.1.0]hexan-1-yl)phenyl)-N-(4-hydroxybicyclo[2.2.2]octan-1-yl)nicotinamide]		6.89			
